# Earlier results as cited in patent US6297239A, “Inhibitors of prenyl-protein transferase” (Merck & Co., Inc., priority 1998, dated 2001).
# Tested on: farnesyl-protein transferase
# Settings: via inhibition of HMG-CoA reductase
row,SMILES,indirect inhibition of farnesyl-protein transferase in vivo
1,CC[C@H](C)C(=O)O[C@H]1CCC=C2C=C[C@H](C)[C@H](CC[C@@H]3C[C@@H](O)CC(=O)O3)[C@H]21 [compactin],Indirect inhibition
2,CC[C@H](C)C(=O)O[C@H]1C[C@@H](C)C=C2C=C[C@H](C)[C@H](CC[C@@H]3C[C@@H](O)CC(=O)O3)[C@H]21 [lovastatin],Indirect inhibition
